From patent US12584919B2, “Enhancing anti-tumor response in melanoma cells with defective sting signaling” (H. Lee Moffitt Cancer Center and Research Institute, Inc., priority 2018, dated 2026)
Entries after “also recorded” stand apart in the source; their conditions may differ.

Assays:
[1] = test system: melanoma cell lines lacking STING; test: STING/cGAS expression by immunoblot after demethylating agent treatment
Source text: STING and cGAS expression were examined in a panel of human melanoma cell lines by immunoblot.

[2] = test system: melanoma cell lines lacking STING; test: CXCL-10 induction in 5AZADC-treated melanoma cells after STING agonist stimulation; settings: 5AZADC-treated cell lines lacking STING, then stimulated with the STING agonist 2′3′-cGAMP
[3] = test system: human melanoma cell lines; test: Flow cytometry of MHC class I (HLA-A.B.C) surface expression; format: cell-based
Experimental: DAPI (Sigma-Aldrich) was used as a viability dye. Sample acquisition was performed on an LSR II flow cytometer (BD Biosciences), and the data were analyzed using FlowJo software (Tree Star).

[4] = test system: human melanoma cell lines; test: CXCL10 and IFN-β release (ELISA) after STING agonist stimulation; format: cell-based
[5] = test system: human melanoma cell lines; test: IRF3 phosphorylation by immunoblot after STING agonist stimulation; format: cell-based
Source text: Proteins were extracted with RIPA buffer (ThermoFisher Scientific) containing protease inhibitors (Thermo Scientific). Protein extracts from NK92, a natural killer cell line, was used as a positive control for the expression of STING and cGAS (Souza-Fonseca-Guimaraes F, et al. J Biol Chem. 2013 288:10715-21). Equal amounts of proteins were resolved on SDS-PAGE gels (Bio-Rad) and transferred to polyvinylidene fluoride (PVDF) membranes (Bio-Rad). After blocking with 5% non-fat dry milk, membranes were incubated with antibodies specific for STING, cGAS, p-IRF3, IRF3 (all from Cell Signaling) and β-actin (Sigma Aldrich). Following incubation with appropriate secondary antibodies, bands were visualized using an enhanced chemiluminescence detection system.

[6] = test system: human melanoma cell lines (WM39, WM3629, 526-MEL) as targets, TIL 195 as effector cells; test: 51Cr release cytotoxicity assay, lysis of melanoma targets by TIL
Experimental: After 4 hours, supernatant was harvested and measured in Trilux (PerkinElmer). Each point represented the average of quadruplicate wells and percentage of specific lysis was calculated by: (experimental release—minimum release)/(maximum release-minimum release)×100.

[7] = test system: human melanoma cell lines (WM39, WM3629, 526-MEL) co-cultured with HLA-matched TIL; test: Co-culture assay of melanoma cells with HLA-matched TIL, cytokine release by ELISA
Experimental: TIL production of IFN-γ and ^51Cr release was assessed for cytotoxicity.
After 24 hours of incubation at 37° C. in a humidified CO2 incubator, the supernatant was harvested for detection of IFN-γ release using enzyme-linked immunosorbent assay (Human IFN-γ Quantikine ELISA Kit, R&D Systems). For the MHC class I blocking assay, melanoma cells were incubated with W6/32 (anti-HLA-A,B,C monoclonal antibody, Biolegend) at a final concentration of 50 μg/mL for 1 hour at 37° C. prior to the addition of TIL.

[8] = WM9 and WM39 cell lines, 2′3′-cGAMP stimulation

Nc1ncn([C@H]2C[C@H](O)[C@@H](CO)O2)c(=O)n1 [5AZADC, 5-aza-2′-deoxycytidine]
STING expression ([1]; 5AZADC-treated melanoma cell lines lacking STING): Partial induction of STING expression; also recorded: reconstitution of STING expression
STING and cGAS expression ([1]; A375, G361, MeWO, SK-MEL-5 and other human melanoma cell lines with and without 5AZADC (FIG. 7)): partially recapitulated
CXCL-10 induction [2]: induction of CXCL-10; also recorded: production of CXCL-10; also recorded: STING-dependent CXCL-10 induction

Nc1nc2c(ncn2[C@@H]2O[C@@H]3COP(=O)(O)O[C@H]4[C@@H](O)[C@H](n5cnc6c(N)ncnc65)O[C@@H]4COP(=O)(O)O[C@@H]2[C@@H]3O)c(=O)[nH]1 [2′3′-cGAMP, 2′3′-cyclic-GMP-AMP]
expression of MHC class I ([3]; 1205Lu, WM266-4, WM2032 and 526-MEL cell lines with impaired STING signaling): no significant changes
MHC-I/HLA-A.B.C expression ([3]; Example 1, human melanoma cell lines (FIG. 14)): upregulation of MHC I
higher surface expression of MHC class I ([3]; WM39 and sh-control cells, p<0.01): more than 2.5 fold
surface expression of MHC class I ([3]; sh-STING (STING knockdown WM39) cells): did not cause any increase in MHC class I
response to 2′3′-cGAMP stimulation (p-IRF3, CXCL10, IFN-β) ([4]; 526-MEL (HLA-A2) cell line): did not respond
CXCL10 induction in cell culture supernatants [4, 8]: detectable levels
IFN-β induction in cell culture supernatants [4, 8]: detectable levels
phosphorylation of IRF3 ([5]; 5 STING-positive cell lines (WM164, WM9, WM39, A375, WM1366), 2′3′-cGAMP 10 μg/ml with Lipofectamine, 4 h): 4 of 5 STING-positive cell lines
phosphorylation of IRF3 ([5]; WM2032 (STING-negative) cell line, 2′3′-cGAMP stimulated): not detected
lysis by TIL 195 (lytic units) ([6]; 526-MEL cells): did not induce any increase in lysis
specific lysis by TIL 195 ([6]; 526-MEL targets, defective in STING signaling): did not alter their specific lysis
augmentation of TIL cytotoxicity ([6]; Example 2, STING-responsive cell lines with HLA-matched TILs, p<0.05): > 2 fold
increase in lytic potential of TIL 195 (lytic units) ([6]; WM39 and MART-1-pulsed WM39 cells vs their controls): > 10 fold
increase in lysis by TIL 195 ([6]; WM39 and MART-1 pulsed WM39 targets, p<0.05): > 2 fold
cytolytic activity of TIL 195 ([6]; WM39 and sh-control targets): increased cytolytic activity
cytotoxicity of the STING agonist alone ([6]; WM39 target cells with or without 2′3′-cGAMP in the absence of TIL): did not result in any major cytotoxicity
lysis by TIL 195 (lytic units) ([6]; WM3629 cells): greater lysis
cytotoxicity (lysis by TIL 195) ([6]; WM3629 targets, p<0.05 vs controls): Increased
cytolytic activity of TIL 195 ([6]; sh-STING (STING knockdown WM39) targets): complete blockade of this response
IFN-γ secretion ([7]; 526-MEL / TIL 19 co-culture): did not induce any increased IFN-γ secretion
IFN-γ release ([7]; 526-MEL / TIL 195 co-cultures): no increase in IFN-γ release
increase in IFN-γ secretion ([7]; Example 2, STING-positive cell lines responding strongly, cultured with HLA-matched TILs, p<0.01): ≤ 15 fold
IFN-γ secretion by TIL ([7]; MART-1 pulsed WM39 / TIL 195 co-culture, p<0.001): significantly increased
IFN-γ production by TIL ([7]; MART-1 pulsed WM39 with two additional HLA-A2 TIL, p<0.01 vs untreated co-cultures): higher levels of IFN-γ production
IFN-γ release, higher than the untreated group ([7]; WM39 / TIL 19 co-cultures, p<0.001): 24 fold
higher IFN-γ release ([7]; WM39 / TIL 195 and sh-control / TIL 195 co-cultures, P<0.05): more than 25 fold
IFN-β in co-culture supernatants ([7]; WM39 / TIL 195 co-culture groups with 2′3′-cGAMP): Induction of IFN-β
IFN-γ secretion by TIL ([7]; WM39 / TIL 195 co-culture, with vs without 2′3′-cGAMP): significantly enhanced
IFN-γ release ([7]; WM3629 / TIL 195 co-cultures, p<0.01): increased
IFN-β induction ([7]; control group containing TIL with 2′3′-cGAMP, no tumor cells): not observed
IFN-γ induction ([7]; sh-STING (STING knockdown WM39) / TIL 195 co-cultures): no increase in IFN-γ induction
